Values of other authors, collected in patent US10073089B2 (priority 2011, dated 2018).

Test system: torpedo electrocyte membranes
Conditions: read-out: Sensitivity (concentration in nM)

| Substance | IC50 |
| --- | --- |
| gymnodimine A [GYM A] | 391 nM |
| 13-desmethyl spirolide C [13-SPX C] | 108 nM |
